This passage reports IC50 results from US10836759B2, “Thiazole derivatives useful as mutant IDH1 inhibitors for treating cancer” (THE UNITED STATES OF AMERICA, AS REPRESENTED BY THE …, priority 2016, dated 2020).

A value given as a limit tells only on which side of the number the result lay.

Test [1] concerns the target IDH1 R132H (Homo sapiens, UniProt O75874, R132H). The test can be described thus: Enzymatic inhibition assay, mutant IDH1 R132H (NADPH depletion coupled to diaphorase/resazurin). It counts as biochemical. Particulars: IDH1 R132H enzyme, IC50 class. The protocol: (§1) Assays were conducted in a 1536-well black solid-bottom plate with a final assay volume of 9 μL.
Specifically, for IDH1 R132H, 3 μL of enzyme (4 mM β-ME, 0.0005 mg/mL IDH1 R132H, 150 mM NaCl, 20 mM Tris pH 7.5, 10 mM MgCl2, 0.05% BSA) were added to the plate, followed by the addition of 23 nL of test compound in DMSO. The plate was lidded and incubated at room temperature for 30 minutes at which time 3 μL of substrate were added (0.016 mM NADPH, 2 mM α-KG, 150 mM NaCl, 20 mM Tris pH 7.5, 10 mM MgCl2, 0.05% BSA). This reaction was incubated at room-temperature for 60 minutes at which time the detection mix was added (0.06 mg/mL diaphorase, 0.036 mM resazurin, 150 mM NaCl, 20 mM Tris pH 7.5, 10 mM MgCl2, 0.05% BSA). […]

In test [2] the target is IDH1 R132C (Homo sapiens, UniProt O75874, R132C). The test can be described thus: Enzymatic inhibition assay, mutant IDH1 R132C (NADPH depletion coupled to diaphorase/resazurin). It counts as biochemical. Particulars: IDH1 R132C enzyme, IC50 class. The protocol:
as §1
For IDH1 R132C, 3 μL of enzyme (0.00032 mg/mL IDH1 R132H, 10% glycerol, 50 mM potassium phosphate pH 6.5, 5 mM MgCl2, 0.03% BSA) were added to the plate, followed by the addition of 23 nL of test compound in DMSO. The plate was lidded and incubated at room temperature for 30 minutes at which time 3 μL of substrate were added (0.012 mM NADPH, 0.6 mM α-KG, 10% glycerol, 50 mM potassium phosphate pH 6.5, 5 mM MgCl2, 0.03% BSA). […]

Sequence of IDH1 R132H (O75874 whole entry R132H): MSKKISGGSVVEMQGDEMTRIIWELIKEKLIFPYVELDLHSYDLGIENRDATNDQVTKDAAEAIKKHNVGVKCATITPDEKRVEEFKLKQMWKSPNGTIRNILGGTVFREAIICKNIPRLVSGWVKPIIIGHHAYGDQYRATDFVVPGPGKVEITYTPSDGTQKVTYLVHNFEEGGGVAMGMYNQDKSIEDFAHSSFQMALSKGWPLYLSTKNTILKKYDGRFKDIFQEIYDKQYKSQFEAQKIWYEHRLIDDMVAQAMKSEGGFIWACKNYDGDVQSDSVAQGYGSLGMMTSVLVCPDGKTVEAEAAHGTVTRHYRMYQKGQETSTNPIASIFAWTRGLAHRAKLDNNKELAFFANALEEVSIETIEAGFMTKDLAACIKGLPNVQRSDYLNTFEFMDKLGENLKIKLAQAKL
Sequence of IDH1 R132C (O75874 whole entry R132C): as the sequence (O75874 whole entry R132H) above, with H132C counted along it

Broadly, the IC50 is the concentration needed to halve the response being measured. For the compound `CCc1ccc(OC)cc1-n1c(C=C(C)C)c(C(=O)N2CC3CCC(C2)N3)cc(-c2nc(-c3ccc(Cl)cc3)cs2)c1=O` [Compound 114], the IC50 in test [1] and in test [2] was under 0.3 µM in each case.
In the case of `CCc1cccc(CC)c1-n1c(C=C(C)C)c(C(=O)N2CCN[C@@H](C)C2)cc(-c2nc(-c3ccc(C(F)F)cc3)cs2)c1=O` [Compound 108], the IC50 in test [1] and in test [2] was under 0.3 µM throughout.
For `CCOc1ccc(Cl)cc1-n1c(C=C(C)C)c(C(=O)N2CC3CCC(C2)N3)cc(-c2nc(-c3ccc(C#N)cc3)cs2)c1=O` (single isomer, unassigned) [Compound 141-1], the IC50 in test [1] and in test [2] was under 0.3 µM throughout.
Consider `CCOc1ccc(Cl)cc1-n1c(C=C(C)C)c(C(=O)N2CCNC[C@@H]2C)cc(-c2nc(-c3ccc(C(F)(F)F)cc3)cs2)c1=O` [Compound 128], for which the values for the IC50 in test [1] and in test [2] were under 0.3 µM and 0.3 to 1 µM, respectively.
Take `CCc1ccc(Cl)cc1-n1c(C=C(C)C)c(C(=O)N2CCNCC2)cc(-c2nc(-c3ccc(C(F)(F)F)nc3)cs2)c1=O` [Compound 122]: the values for the IC50 in test [1] and in test [2] were 0.3 to 1 µM and 1 to 5 µM, respectively.
In the case of `CCOc1ccc(Cl)c(-n2c(C=C(C)C)c(C(=O)N3CC4CCC(C3)N4)cc(-c3nc(-c4ccc(Cl)cc4)cs3)c2=O)c1` (single isomer, unassigned) [Compound 126-1], the IC50 in test [1] and in test [2] was under 0.3 µM throughout.
Regarding `CCOc1ccc(Cl)cc1-n1c(C=C(C)C)c(C(=O)N2CC3CCC(C2)N3)cc(-c2nc(-c3ccc(Cl)cc3)cs2)c1=O` (single isomer, unassigned) [Compound 113-2], the IC50 in test [1] was in the range of 1 to 5 µM; in test [2] it was 0.3 to 1 µM.
Turning to `CCc1ccc(OC)cc1-n1c(C=C(C)C)c(C(=O)N2CCNCC2)cc(-c2nc(-c3ccc(C(F)(F)F)nc3)cs2)c1=O` [Compound 103], the IC50 in test [1] and in test [2] was under 0.3 µM in each case.
For the compound `CCc1cccc(CC)c1-n1c(C=C(C)C)c(C(=O)N2C[C@H]3CC[C@@H](C2)N3)cc(-c2nc(-c3ccc(C(F)F)nc3)cs2)c1=O` [Compound 119], the IC50 in test [1] and in test [2] was under 0.3 µM in each case.
On to `CCOc1ccc(Cl)cc1-n1c(C=C(C)C)c(C(=O)N2CCNC[C@H]2C)cc(-c2nc(-c3ccc(C(F)(F)F)cc3)cs2)c1=O` [Compound 129], for which the 50% inhibitory concentration (IC50) in test [1] and in test [2] was under 0.3 µM each time.
`CCOc1ccc(Cl)c(-n2c(C=C(C)C)c(C(=O)N3CC4CCC(C3)N4)cc(-c3nc(-c4ccc(Cl)cc4)cs3)c2=O)c1` (single isomer, unassigned) [Compound 126-2]: the IC50 in test [1] and in test [2] was 1 to 5 µM each time.
For `CCc1ccc(Cl)cc1-n1c(CC(C)C)c(C(=O)N2CCNCC2)cc(-c2nc(-c3ccc(C(F)F)cc3)cs2)c1=O` [Compound 118], the IC50 in test [1] and in test [2] was 0.3 to 1 µM in each case.
On to `CNc1ccc(Cl)c(-n2c(C=C(C)C)c(C(=O)N3CCNCC3)cc(-c3nc(-c4ccc(Cl)cc4)cs3)c2=O)c1` [Compound 148], for which the IC50 in test [1] and in test [2] was under 0.3 µM each time.
As to `CCc1ccc(OC)cc1-n1c(C=C(C)C)c(C(=O)N2C[C@H]3CC[C@@H](C2)N3)cc(-c2nc(-c3ccc(Cl)cc3)cs2)c1=O` (single isomer, unassigned) [Compound 114-2], the half-inhibitory concentration (IC50) in test [1] and in test [2] was 0.3 to 1 µM throughout.
As for `CCOc1ccc(Cl)c(-n2c(C=C(C)C)c(C(=O)N3CCNCC3)cc(-c3nc(-c4ccc(Cl)cc4)cs3)c2=O)c1` (single isomer, unassigned) [Compound 139-2], the IC50 in test [1] lay in the range of 0.3 to 1 µM; in test [2] it was 1 to 5 µM.
Regarding `CCOc1ccc(Cl)c(-n2c(C=C(C)C)c(C(=O)N3CC4CCC(C3)N4)cc(-c3nc(-c4ccc(OC)nc4)cs3)c2=O)c1` [Compound 138], the IC50 in test [1] and in test [2] was under 0.3 µM in each case.
`CCOc1ccc(N(CC)CC)cc1-n1c(C=C(C)C)c(C(=O)N2CCNCC2)cc(-c2nc(-c3ccc(Cl)cc3)cs2)c1=O` [Compound 145]: the IC50 in test [1] and in test [2] was under 0.3 µM each time.
Take `CCc1cccc(CC)c1-n1c(C=C(C)C)c(C(=O)N2CCN[C@@H](C)C2)cc(-c2nc(-c3ccc(Cl)cc3)cs2)c1=O` [Compound 109]: the IC50 in test [1] and in test [2] was under 0.3 µM each time.
Take `CCOc1ccc(Cl)cc1-n1c(C=C(C)C)c(C(=O)N2CCNCC2)cc(-c2nc(-c3ccc(C#N)cc3)cs2)c1=O` (single isomer, unassigned) [Compound 140-2]: the values for the IC50 in test [1] and in test [2] were under 0.3 µM and 0.3 to 1 µM, respectively.
In the case of `CNc1ccc(Cl)c(-n2c(C=C(C)C)c(C(=O)N3C[C@H]4CC[C@@H](C3)N4)cc(-c3nc(-c4ccc(Cl)cc4)cs3)c2=O)c1` [Compound 149], the IC50 in test [1] and in test [2] was under 0.3 µM in each case.
As for `CCOc1ccc(Cl)cc1-n1c(C=C(C)C)c(C(=O)N2CC3CCC(C2)N3)cc(-c2nc(-c3ccc(Cl)cc3)cs2)c1=O` [Compound 113], the IC50 in test [1] and in test [2] was under 0.3 µM each time.
Take `CCc1ccc(Cl)cc1-n1c(C=C(C)C)c(C(=O)N2CCNCC2)cc(-c2nc(-c3ccc(Cl)cc3)cs2)c1=O` (single isomer, unassigned) [Compound 144-2]: the IC50 in test [1] was under 0.3 µM; in test [2] it was 0.3 to 1 µM.
For `CCOc1ccc(Cl)c(-n2c(C=C(C)C)c(C(=O)N3CCNCC3)cc(-c3nc(-c4ccc(Cl)cc4)cs3)c2=O)c1` (single isomer, unassigned) [Compound 139-1], the IC50 in test [1] and in test [2] was under 0.3 µM in each case.
`CCc1cccc(CC)c1-n1c(C=C(C)C)c(C(=O)N2CCNC[C@H]2C)cc(-c2nc(-c3ccc(C(F)F)cc3)cs2)c1=O` [Compound 131]: the IC50 in test [1] and in test [2] was under 0.3 µM in each case.
As to `CCc1ccc(Cl)cc1-n1c(C=C(C)C)c(C(=O)N2CCNCC2)cc(-c2nc(-c3ccc(Cl)cc3)cs2)c1=O` [Compound 101], the half-inhibitory concentration (IC50) in test [1] and in test [2] was under 0.3 µM each time.
Turning to `CCc1ccc(OC)cc1-n1c(C=C(C)C)c(C(=O)N2C[C@H]3CC[C@@H](C2)N3)cc(-c2nc(-c3ccc(Cl)cc3)cs2)c1=O` (single isomer, unassigned) [Compound 114-1], the IC50 in test [1] and in test [2] was under 0.3 µM throughout.
Turning to `CC(C)=Cc1c(C(=O)N2C[C@H]3CC[C@@H](C2)N3)cc(-c2nc(-c3ccc(Cl)cc3)cs2)c(=O)n1-c1cc(N(C)C)ccc1Cl` [Compound 150], the IC50 in test [1] is 0.3 to 1 µM; in test [2] it was under 0.3 µM.
The matching figures for `CCc1ccc(N(C)C)cc1-n1c(C=C(C)C)c(C(=O)N2CC3CCC(C2)N3)cc(-c2nc(-c3ccc(Cl)cc3)cs2)c1=O` [Compound 134]: under 0.3 µM and under 0.3 µM.
Consider `CCc1ccc(Cl)cc1-n1c(C=C(C)C)c(C(=O)N2CCNCC2)cc(-c2nc(-c3ccc(Cl)cc3)cs2)c1=O` (single isomer, unassigned) [Compound 144-1], for which the half-maximal inhibitory concentration (IC50) in test [1] and in test [2] was under 0.3 µM throughout.
`CCOc1ccc(Cl)cc1-n1c(C=C(C)C)c(C(=O)N2CCN[C@H](C)C2)cc(-c2nc(-c3ccc(C(F)(F)F)cc3)cs2)c1=O` [Compound 110]: the IC50 in test [1] and in test [2] was under 0.3 µM each time.
Consider `CCOc1ccc(Cl)c(-n2c(C=C(C)C)c(C(=O)N3CCNCC3)cc(-c3nc(-c4ccc(C(F)(F)F)cc4)cs3)c2=O)c1` [Compound 105], for which the concentration for half-maximal inhibition (IC50) in test [1] and in test [2] was under 0.3 µM in each case.
`CCOc1ccc(C#N)cc1-n1c(C=C(C)C)c(C(=O)N2CC3CCC(C2)N3)cc(-c2nc(-c3ccc(Cl)cc3)cs2)c1=O` [Compound 135]: the IC50 in test [1] and in test [2] was under 0.3 µM in each case.
As for `CCOc1ccc(Cl)cc1-n1c(C=C(C)C)c(C(=O)N2CCN[C@@H](C)C2)cc(-c2nc(-c3ccc(C(F)(F)F)cc3)cs2)c1=O` [Compound 107], the half-maximal inhibitory concentration (IC50) in test [1] and in test [2] was under 0.3 µM in each case.
As to `CCOc1ccc(N(CC)CC)cc1-n1c(C=C(C)C)c(C(=O)N2C[C@H]3CC[C@@H](C2)N3)cc(-c2nc(-c3ccc(Cl)cc3)cs2)c1=O` [Compound 146], the IC50 in test [1] was under 0.3 µM; in test [2], 0.3 to 1 µM.
On to `CCOc1ccc(Cl)c(-n2c(C=C(C)C)c(C(=O)N3C[C@H]4CC[C@@H](C3)N4)cc(-c3nc(-c4ccc(C(F)F)cc4)cs3)c2=O)c1` [Compound 130], for which the IC50 in test [1] and in test [2] was under 0.3 µM each time.
Take `CCc1ccc(Cl)cc1-n1c(C=C(C)C)c(C(=O)N2CC3CCC(C2)N3)cc(-c2nc(-c3ccc(Cl)cc3)cs2)c1=O` (single isomer, unassigned) [Compound 133-1]: the results for the IC50 in test [1] and in test [2] were 0.3 to 1 µM and under 0.3 µM, respectively.
For the compound `CCc1ccc(OC)cc1-n1c(C=C(C)C)c(C(=O)N2CCNCC2)cc(-c2nc(-c3ccc(Cl)cc3)cs2)c1=O` (single isomer, unassigned) [Compound 151-2], in test [2], the IC50 fell in the range of 0.3 to 1 µM.
Compound `CCOc1ccc(Cl)cc1-n1c(C=C(C)C)c(C(=O)N2CCNCC2)cc(-c2nc(-c3ccc(Cl)cc3)cs2)c1=O` (single isomer, unassigned) [Compound 143-1] yielded an IC50 in test [2] of 0.3 to 1 µM.
